In the NIST ThermoML archive (doi:10.1016/j.tca.2018.01.023):
“And” between values parts separate entries of the source, which are not always exact repeats. Equal values may be shown once.

Assay: molar heat capacity at constant pressure
Conditions: 101.33 kPa, Crystal, Small sample (50 mg) DSC

[Ca+2].[O]=[Mo](=[O])([O-])[O-] [calcium molybdate(VI)]
Conditions	molar heat capacity at constant pressure
596.4 K	141.2 J/K/mol
597 K	142.1 J/K/mol
597.4 K	141.3 J/K/mol
598 K	142.2 J/K/mol
598.4 K	141.3 J/K/mol
599 K	142.2 J/K/mol
599.4 K	141.3 J/K/mol
600 K	141.5 J/K/mol and 142.3 J/K/mol
600.4 K	141.3 J/K/mol
601 K	142.4 J/K/mol
601.4 K	141.4 J/K/mol
602 K	142.4 J/K/mol
602.4 K	141.4 J/K/mol
603 K	142.5 J/K/mol
603.4 K	141.4 J/K/mol
604.1 K	142.4 J/K/mol
604.4 K	141.4 J/K/mol
605.1 K	142.4 J/K/mol
605.4 K	141.4 J/K/mol
606.1 K	142.4 J/K/mol
606.4 K	141.5 J/K/mol
607.1 K	142.5 J/K/mol
607.4 K	141.5 J/K/mol
608.1 K	142.5 J/K/mol
608.4 K	141.5 J/K/mol
609.1 K	142.6 J/K/mol
609.4 K	141.5 J/K/mol
610.1 K	142.7 J/K/mol
610.4 K	141.5 J/K/mol
611.1 K	142.7 J/K/mol
611.4 K	141.5 J/K/mol
612.1 K	142.7 J/K/mol
612.4 K	141.5 J/K/mol
613.1 K	142.8 J/K/mol
613.4 K	141.6 J/K/mol
614.1 K	142.8 J/K/mol
614.4 K	141.6 J/K/mol
615.1 K	142.8 J/K/mol
615.4 K	141.6 J/K/mol
616.1 K	142.9 J/K/mol
616.4 K	141.6 J/K/mol
617.1 K	142.9 J/K/mol
617.4 K	141.6 J/K/mol
618.1 K	142.9 J/K/mol
618.4 K	141.6 J/K/mol
619.1 K	143 J/K/mol
619.4 K	141.5 J/K/mol
620 K	142.4 J/K/mol
620.1 K	143.1 J/K/mol
620.4 K	141.5 J/K/mol
621.1 K	143.2 J/K/mol
621.4 K	141.4 J/K/mol
622.1 K	143.2 J/K/mol
622.4 K	141.5 J/K/mol
623.1 K	143.3 J/K/mol
623.4 K	141.5 J/K/mol
624.1 K	143.3 J/K/mol
624.4 K	141.6 J/K/mol
624.5 K	143.3 J/K/mol
625.4 K	141.6 J/K/mol
626.4 K	141.7 J/K/mol
627.4 K	141.7 J/K/mol
628.4 K	141.7 J/K/mol
629.4 K	141.8 J/K/mol
630.4 K	141.8 J/K/mol
631.4 K	141.9 J/K/mol
632.4 K	142.1 J/K/mol
633.4 K	142.2 J/K/mol
634.4 K	142.3 J/K/mol
635.4 K	142.3 J/K/mol
636.4 K	142.4 J/K/mol
637.4 K	142.4 J/K/mol
638.4 K	142.4 J/K/mol
639.4 K	142.5 J/K/mol
640 K	143.2 J/K/mol
640.4 K	142.6 J/K/mol
641.4 K	142.7 J/K/mol
642.4 K	142.8 J/K/mol
643.4 K	142.8 J/K/mol
644.4 K	142.9 J/K/mol
645.4 K	142.9 J/K/mol
646.4 K	143 J/K/mol
647.4 K	143 J/K/mol
648.4 K	143 J/K/mol
649.4 K	143.1 J/K/mol
650.4 K	143.2 J/K/mol
651.4 K	143.2 J/K/mol
652.4 K	143.3 J/K/mol
653.4 K	143.4 J/K/mol
654.4 K	143.4 J/K/mol
655.4 K	143.5 J/K/mol
656.4 K	143.6 J/K/mol
657.4 K	143.6 J/K/mol
658.4 K	143.7 J/K/mol
659.4 K	143.8 J/K/mol
660 K	144 J/K/mol
660.4 K	143.8 J/K/mol
661.4 K	143.9 J/K/mol
662.4 K	144 J/K/mol
663.4 K	144 J/K/mol
664.4 K	144.1 J/K/mol
665.4 K	144.2 J/K/mol
666.4 K	144.2 J/K/mol
667.4 K	144.3 J/K/mol
668.4 K	144.3 J/K/mol
669.4 K	144.4 J/K/mol
670.4 K	144.4 J/K/mol
671.4 K	144.4 J/K/mol
672.4 K	144.5 J/K/mol
673.4 K	144.5 J/K/mol
674.4 K	144.5 J/K/mol
675.4 K	144.5 J/K/mol
676.4 K	144.6 J/K/mol
677.4 K	144.6 J/K/mol
678.4 K	144.7 J/K/mol
679.4 K	144.8 J/K/mol
680 K	144.7 J/K/mol
680.4 K	144.9 J/K/mol
681.4 K	144.9 J/K/mol
682.4 K	145 J/K/mol
683.4 K	145.1 J/K/mol
684.4 K	145.2 J/K/mol
685.4 K	145.3 J/K/mol
686.4 K	145.3 J/K/mol
687.4 K	145.4 J/K/mol
688.4 K	145.4 J/K/mol
689.4 K	145.5 J/K/mol
690.4 K	145.5 J/K/mol
691.4 K	145.6 J/K/mol
692.4 K	145.6 J/K/mol
693.4 K	145.7 J/K/mol
694.4 K	145.8 J/K/mol
695.4 K	145.8 J/K/mol
696.4 K	145.9 J/K/mol
697.4 K	145.9 J/K/mol
698.4 K	145.9 J/K/mol
699.4 K	145.9 J/K/mol
700 K	145.4 J/K/mol
700.4 K	145.9 J/K/mol
701.4 K	145.9 J/K/mol
702.4 K	145.9 J/K/mol
703.4 K	145.9 J/K/mol
704.4 K	145.9 J/K/mol
705.4 K	145.9 J/K/mol
706.4 K	145.8 J/K/mol
707.4 K	145.8 J/K/mol
708.4 K	145.8 J/K/mol
709.4 K	145.9 J/K/mol
710.4 K	145.9 J/K/mol
711.4 K	145.9 J/K/mol
712.4 K	146 J/K/mol
713.4 K	146 J/K/mol
714.4 K	146 J/K/mol
715.4 K	146 J/K/mol
716.4 K	146.1 J/K/mol
717.4 K	146.2 J/K/mol
718.4 K	146.2 J/K/mol
719.4 K	146.3 J/K/mol
720 K	146.1 J/K/mol
720.4 K	146.3 J/K/mol
721.4 K	146.3 J/K/mol
722.4 K	146.3 J/K/mol
723.4 K	146.4 J/K/mol
724.4 K	146.4 J/K/mol
725.4 K	146.5 J/K/mol
726.4 K	146.5 J/K/mol
727.4 K	146.6 J/K/mol
728.4 K	146.6 J/K/mol
729.4 K	146.6 J/K/mol
730.4 K	146.7 J/K/mol
731.4 K	146.7 J/K/mol
732.4 K	146.7 J/K/mol
733.4 K	146.7 J/K/mol
734.4 K	146.7 J/K/mol
735.4 K	146.7 J/K/mol
736.4 K	146.7 J/K/mol
737.4 K	146.7 J/K/mol
738.4 K	146.8 J/K/mol
739.4 K	146.9 J/K/mol
740 K	146.8 J/K/mol
740.4 K	147 J/K/mol
741.4 K	147 J/K/mol
742.4 K	147.1 J/K/mol
743.4 K	147.1 J/K/mol
744.4 K	147.1 J/K/mol
745.4 K	147.2 J/K/mol
746.4 K	147.2 J/K/mol
747.4 K	147.3 J/K/mol
748.4 K	147.3 J/K/mol
749.4 K	147.3 J/K/mol
750.4 K	147.3 J/K/mol
751.4 K	147.4 J/K/mol
752.4 K	147.4 J/K/mol
753.4 K	147.4 J/K/mol
754.4 K	147.5 J/K/mol
755.4 K	147.5 J/K/mol
756.4 K	147.6 J/K/mol
757.4 K	147.7 J/K/mol
758.4 K	147.7 J/K/mol
759.4 K	147.8 J/K/mol
760 K	147.4 J/K/mol
760.4 K	147.8 J/K/mol
761.4 K	147.8 J/K/mol
762.4 K	147.7 J/K/mol
763.4 K	147.7 J/K/mol
764.4 K	147.7 J/K/mol
765.4 K	147.8 J/K/mol
766 K	147.5 J/K/mol
766.4 K	147.9 J/K/mol
